# From ChEMBL document CHEMBL3217751, “Potent inhibition of Ca2+-dependent activation of calpain-1 by novel mercaptoacrylates” (Medchemcomm, 2012)
# Calls of active or inactive are those of the source. The calls are words filed in the database; no cut-off is given here.
# Experiments:
# [1] = biological target: T1, Calpain-1 catalytic subunit (Sus scrofa, UniProt P35750); test: Inhibition of Ca2+-dependent activation of porcine calpain-1 using SucLY-AMC as substrate
# T1 sequence (P35750 whole entry): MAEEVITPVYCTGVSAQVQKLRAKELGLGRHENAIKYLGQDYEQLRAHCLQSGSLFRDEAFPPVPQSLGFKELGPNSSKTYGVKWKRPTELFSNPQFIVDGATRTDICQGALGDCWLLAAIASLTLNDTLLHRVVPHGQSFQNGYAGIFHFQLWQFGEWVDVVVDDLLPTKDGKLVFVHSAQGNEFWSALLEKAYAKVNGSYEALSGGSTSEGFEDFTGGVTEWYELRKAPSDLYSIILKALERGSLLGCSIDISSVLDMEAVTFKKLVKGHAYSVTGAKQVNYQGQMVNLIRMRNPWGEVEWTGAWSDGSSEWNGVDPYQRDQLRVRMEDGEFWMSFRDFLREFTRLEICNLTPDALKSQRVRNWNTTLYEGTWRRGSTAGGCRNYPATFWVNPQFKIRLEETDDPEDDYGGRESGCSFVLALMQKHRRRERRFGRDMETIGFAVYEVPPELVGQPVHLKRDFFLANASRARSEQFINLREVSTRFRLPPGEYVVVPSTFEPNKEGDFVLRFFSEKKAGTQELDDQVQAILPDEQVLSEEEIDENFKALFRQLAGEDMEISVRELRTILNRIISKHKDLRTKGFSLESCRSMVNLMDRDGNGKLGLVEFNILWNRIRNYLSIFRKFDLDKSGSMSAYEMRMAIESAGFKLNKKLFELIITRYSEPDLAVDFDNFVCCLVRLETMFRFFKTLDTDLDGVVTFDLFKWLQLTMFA
# [2] = biological target: T1, Calpain-1 catalytic subunit; test: Inhibition of Ca2+-dependent activation of porcine calpain-1 using H-K(FAM)-EVYGMMK(DABCYL)-OH as substrate by FRET assay
# [3] = biological target: T2, Calpain-1 catalytic subunit (Homo sapiens) (UniProt P07384); test: Inhibition of calpain-1 in human neutrophils assessed as cell spreading at 10 uM
# T2 sequence (whole entry): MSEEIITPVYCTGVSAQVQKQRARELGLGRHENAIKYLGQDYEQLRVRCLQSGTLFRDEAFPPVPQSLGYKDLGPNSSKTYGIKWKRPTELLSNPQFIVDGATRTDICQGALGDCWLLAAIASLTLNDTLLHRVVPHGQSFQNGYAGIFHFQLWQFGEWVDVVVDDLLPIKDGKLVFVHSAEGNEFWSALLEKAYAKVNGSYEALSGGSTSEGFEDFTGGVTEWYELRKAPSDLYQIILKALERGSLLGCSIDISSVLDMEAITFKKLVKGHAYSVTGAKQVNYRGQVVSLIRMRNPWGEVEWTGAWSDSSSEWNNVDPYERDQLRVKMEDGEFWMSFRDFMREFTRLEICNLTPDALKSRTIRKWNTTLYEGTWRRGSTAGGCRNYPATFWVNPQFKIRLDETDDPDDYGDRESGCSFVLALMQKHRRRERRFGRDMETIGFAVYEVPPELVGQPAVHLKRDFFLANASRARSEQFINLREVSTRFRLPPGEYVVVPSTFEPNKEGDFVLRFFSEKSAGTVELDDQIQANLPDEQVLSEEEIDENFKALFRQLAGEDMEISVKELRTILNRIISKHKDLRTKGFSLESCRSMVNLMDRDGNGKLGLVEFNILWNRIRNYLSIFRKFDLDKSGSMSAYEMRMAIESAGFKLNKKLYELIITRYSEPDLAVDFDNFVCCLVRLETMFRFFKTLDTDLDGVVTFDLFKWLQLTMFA
# [4] = biological target: T3, Calpain-1 catalytic subunit (Homo sapiens, UniProt P07384); test: Inhibition of human erythrocytes mu-calpain using SLLVY-AMC as substrate after 60 mins
# T3 sequence (P07384 whole entry): T2 sequence (whole entry)
# [5] = biological target: T4, Calpain-2 catalytic subunit (Homo sapiens, UniProt P17655); test: Inhibition of calpain-2 (unknown origin)
# T4 sequence (P17655 whole entry): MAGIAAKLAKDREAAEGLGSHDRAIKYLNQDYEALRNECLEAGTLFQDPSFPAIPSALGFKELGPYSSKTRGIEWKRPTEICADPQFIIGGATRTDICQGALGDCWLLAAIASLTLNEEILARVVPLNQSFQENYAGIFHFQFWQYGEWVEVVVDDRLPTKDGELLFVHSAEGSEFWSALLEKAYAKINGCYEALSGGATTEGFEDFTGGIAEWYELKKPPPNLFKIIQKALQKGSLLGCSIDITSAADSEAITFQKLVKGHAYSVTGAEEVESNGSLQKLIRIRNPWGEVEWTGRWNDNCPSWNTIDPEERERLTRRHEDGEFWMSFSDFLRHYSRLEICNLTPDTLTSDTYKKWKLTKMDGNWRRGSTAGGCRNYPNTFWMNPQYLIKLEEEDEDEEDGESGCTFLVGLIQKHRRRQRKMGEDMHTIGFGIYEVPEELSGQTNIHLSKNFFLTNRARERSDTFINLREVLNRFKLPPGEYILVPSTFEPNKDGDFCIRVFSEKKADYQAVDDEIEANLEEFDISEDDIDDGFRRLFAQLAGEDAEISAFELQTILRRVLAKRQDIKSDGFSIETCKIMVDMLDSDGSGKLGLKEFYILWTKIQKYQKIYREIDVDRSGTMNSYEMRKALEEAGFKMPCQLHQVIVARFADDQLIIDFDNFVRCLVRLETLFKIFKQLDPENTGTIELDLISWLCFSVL
Compound,IC50 [1] [nM],IC50 [2] [nM],inhibition [3],Ki [4] [nM],Ki [5] [nM]
O=C(O)/C(S)=C/c1ccccc1Br,9100,21000,–,–,–
O=C(O)/C(S)=C/c1c[nH]c2c(I)cccc12,220,90,–,–,–
O=C(O)/C(S)=C/c1c[nH]c2c(Br)cccc12,70,2,–,–,–
O=C(O)/C(S)=C/c1c[nH]c2cccc(F)c12,300,10,–,–,–
O=C(O)/C(S)=C/c1c[nH]c2cccc(Br)c12,100,6,–,–,–
O=C(O)/C(S)=C/c1c[nH]c2ccc(I)cc12,90,100,–,–,–
O=C(O)/C(S)=C/c1c[nH]c2cc(Br)ccc12,90,7,Active,–,–
O=C(O)/C(S)=C/c1c[nH]c2cc(F)ccc12,300,10,Active,–,–
O=C(O)/C(S)=C/c1ccccc1F,23200,21900,–,–,–
O=C(O)/C(S)=C/c1c[nH]c2c(F)cccc12,110,120,–,–,–
O=C(O)/C(S)=C/c1c[nH]c2cc(I)ccc12,300,170,–,–,–
O=C(O)/C(S)=C/c1c[nH]c2ccc(Br)cc12,20,6,–,–,–
O=C(O)/C(S)=C/c1c[nH]c2ccc(F)cc12,930,800,–,260,5330

# Next, values leading:
IC50 [1] [nM],IC50 [2] [nM],inhibition [3],Ki [4] [nM],Ki [5] [nM],Compound
100,210,Active,–,–,O=C(O)/C(S)=C/c1c[nH]c2cc(Cl)ccc12
90,10,–,–,–,O=C(O)/C(S)=C/c1c[nH]c2c(Cl)cccc12
8400,4000,–,–,–,O=C(O)/C(S)=C/c1cccc(Br)c1
23900,4300,–,–,–,O=C(O)/C(S)=C/c1cccc(I)c1
5200,2200,–,210,370,O=C(O)/C(S)=C/c1ccc(I)cc1
13100,4200,–,–,–,O=C(O)/C(S)=C/c1cccc(Cl)c1
20700,11900,–,–,–,O=C(O)/C(S)=C/c1ccccc1Cl
50,250,–,–,–,O=C(O)/C(S)=C/c1c[nH]c2ccc(Cl)cc12
140,20,–,–,–,O=C(O)/C(S)=C/c1c[nH]c2cccc(Cl)c12
1500,1500,–,–,–,O=C(O)/C(S)=C/c1ccc(Br)cc1
31500,19000,–,–,–,O=C(O)/C(S)=C/c1cccc(F)c1
5600,6900,–,–,–,O=C(O)/C(S)=C/c1ccc(F)cc1
15000,2600,–,–,–,O=C(O)/C(S)=C/c1ccc(Cl)cc1
